Measurements from patent US20110039762A1, “TARGETED ANTIMICROBIAL MOIETIES” (C3 JIAN, INC., priority 2009, published 2011).
“Also recorded” adds a separate entry of the source.

Legend:
E. faecalis = test: Kill or inhibit growth/proliferation; morphology, biofilm and growth disruption (Tables 5, 6); format: cell-based, Enterococcus faecalis; parameters: key: A: Peptide aggregates; B: Less hyphal formation; Clumps; Diffuse clumps and small polyps; F: Diffuse growth; H: Thin; I: Growth inhibition; Microcolony formation; Rippled; Small polyps; Thick; W: Halo formation on top, microlonies on bottom; note: test concentration or dose not given here
MRSA = test: as above; format: cell-based, Methicillin-resistant Staphylococcus aureus; parameters: key: A: Peptide aggregates; B: Less hyphal formation; Clumps; Diffuse clumps and small polyps; F: Diffuse growth; H: Thin; I: Growth inhibition; Microcolony formation; Rippled; Small polyps; Thick; W: Halo formation on top, microlonies on bottom
S. epidermidis = test: as above; format: cell-based, Staphylococcus epidermidis; parameters: key: A: Peptide aggregates; B: Less hyphal formation; Clumps; Diffuse clumps and small polyps; F: Diffuse growth; H: Thin; I: Growth inhibition; Microcolony formation; Rippled; Small polyps; Thick; W: Halo formation on top, microlonies on bottom
S. pneumoniae = test: as above; format: cell-based, Streptococcus pneumoniae; parameters: key: A: Peptide aggregates; B: Less hyphal formation; Clumps; Diffuse clumps and small polyps; F: Diffuse growth; H: Thin; I: Growth inhibition; Microcolony formation; Rippled; Small polyps; Thick; W: Halo formation on top, microlonies on bottom
[1] = system: microorganisms (e.g., bacteria, yeasts, fungi); test: Targeting peptide binding to target microorganisms (Table 3); conditions: preferably 1x PBS; for Target(s) (microorganisms bound by the targeting peptide): peptide binding in aqueous buffers varied by peptide solubility; for Target(s): microorganism(s) the targeting peptide binds
microorganisms = test: Peptides having multiple activities (targeting/binding, antimicrobial, growth or phenotype altering)
Source text: In certain embodiments, peptides described herein can have multiple activities. Thus for example, a peptide can have both binding/targeting activity and antimicrobial activity. Such peptides can be used, e.g., in a chimeric construct, for any or all of these properties. Thus, for example, a peptide designated “B” in Table 8 can be used as a targeting peptide. If it is also designated G or M it can also be used for antimicrobial activity.

E. coli = test: Kill or inhibit growth/proliferation; morphology, biofilm and growth disruption (Tables 5, 6); format: cell-based, Escherichia coli; parameters: key: A: Peptide aggregates; B: Less hyphal formation; Clumps; Diffuse clumps and small polyps; F: Diffuse growth; H: Thin; I: Growth inhibition; Microcolony formation; Rippled; Small polyps; Thick; W: Halo formation on top, microlonies on bottom; note: test concentration or dose not given here
[2] = peptide binding conducted in aqueous buffers varied by peptide solubility
[3] = binding in aqueous buffers depending on peptide solubility
Throughout, for Organism, effect (morphology, biofilm and growth disruption): test concentration or dose not given here.
Throughout, for Organism, effect: test concentration or dose not given here.

PF-664: peptide having multiple activities (chain 1 DQLCVEYPARVSTG; chain 2 DQLCVEYPARVSTG; Peptide with targeting and/or antimicrobial activity)
Organism, effect (morphology, biofilm and growth disruption) (E. faecalis): E. faecalis (R) | Organism, effect (morphology, biofilm and growth disruption) (MRSA): MRSA (R) | Organism, effect (morphology, biofilm and growth disruption) (S. epidermidis): S. epidermidis (M) | Organism, effect (morphology, biofilm and growth disruption) (S. pneumoniae): S. pneumoniae (M) | Target(s) (microorganisms bound by the targeting peptide) [1]: M. smegmatis | Activities (microorganisms): G B

PF-403: peptide having multiple activities (LLSTEQLLKYYDGETFDGFQLPSNE; Peptide with targeting and/or antimicrobial activity)
Organism, effect (MRSA): MRSA (M) | Organism, effect (S. epidermidis): S. epidermidis (M) | Organism, effect (E. coli): E. coli (R) | Target(s) [1, 2]: E. coli; also recorded: P. aeruginosa; also recorded: S. pneumoniae; also recorded: E. faecalis; also recorded: C. jeikeium; also recorded: C. jejuni | Activities (microorganisms): G B

PF-383: peptide having multiple activities (chain 1 WSEIEINTKQSN; chain 2 WSEIEINTKQSN; Peptide with targeting and/or antimicrobial activity)
Organism, effect (S. epidermidis): S. epidermidis (C) | Organism, effect (E. coli): E. coli (R) | Target(s) [1, 3]: S. epidermidis; also recorded: B. subtilis; also recorded: B. fragilis; also recorded: E. coli; also recorded: C. jejuni | Activities (microorganisms): G B

PF-360: peptide having multiple activities (chain 1 MEQKVKVIFVPRSKPDNQLKTFVSAVLFKA; chain 2 MEQKVKVIFVPRSKPDNQLKTFVSAVLFKA; Peptide with targeting and/or antimicrobial activity)
Organism, effect (MRSA): MRSA (H) | Organism, effect (S. epidermidis): S. epidermidis (S) | Organism, effect (E. coli): E. coli (C) | Target(s) [1, 3]: S. epidermidis; also recorded: B. subtilis; also recorded: E. coli; also recorded: P. aeruginosa; also recorded: C. albicans; also recorded: E. faecalis; also recorded: C. jeikeium; also recorded: C. jejuni | Activities (microorganisms): G B

PF-544: peptide having multiple activities (chain 1 FGEKQMRSWWKVHWFHP; chain 2 FGEKQMRSWWKVHWFHP; Peptide with targeting and/or antimicrobial activity)
Organism, effect (E. faecalis): E. faecalis (R) | Organism, effect (MRSA): MRSA (D) | Organism, effect (S. epidermidis): S. epidermidis (D) | Organism, effect (S. pneumoniae): S. pneumoniae (M) | Activities (microorganisms): G B

PF-667 (chain 1 PAHQRLRIDQRLVADRDMVQDYES; chain 2 PAHQRLRIDQRLVADRDMVQDYES; Peptide with targeting and/or antimicrobial activity)
Organism, effect (morphology, biofilm and growth disruption) (E. faecalis): E. faecalis (R) | Organism, effect (morphology, biofilm and growth disruption) (MRSA): MRSA (R) | Organism, effect (morphology, biofilm and growth disruption) (S. epidermidis): S. epidermidis (R) | Organism, effect (morphology, biofilm and growth disruption) (S. pneumoniae): S. pneumoniae (R) | Target(s) (microorganisms bound by the targeting peptide) [1]: Mycobacteria spp

PF-407: peptide having multiple activities (KPKNKKEKTVISYEKLLSMY; Peptide with targeting and/or antimicrobial activity)
Organism, effect (E. faecalis): E. faecalis (R) | Organism, effect (MRSA): MRSA (C) | Organism, effect (S. epidermidis): S. epidermidis (M) | Organism, effect (S. pneumoniae): S. pneumoniae (R) | Activities (microorganisms): G B

PF-690 (chain 1 MIPLAGDPVSSHRTVEFGVLGTYLVSGGSL; chain 2 MIPLAGDPVSSHRTVEFGVLGTYLVSGGSL; Peptide with targeting and/or antimicrobial activity)
Organism, effect (morphology, biofilm and growth disruption) (E. faecalis): E. faecalis (R) | Organism, effect (morphology, biofilm and growth disruption) (MRSA): MRSA (R) | Organism, effect (morphology, biofilm and growth disruption) (S. epidermidis): S. epidermidis (R) | Organism, effect (morphology, biofilm and growth disruption) (S. pneumoniae): S. pneumoniae (M) | Target(s) (microorganisms bound by the targeting peptide) [1]: Mycobacteria spp

PF-385: peptide having multiple activities (chain 1 MIKKSILKIKYYVPVLISLTLILSA; chain 2 MIKKSILKIKYYVPVLISLTLILSA; Peptide with targeting and/or antimicrobial activity)
Organism, effect (E. coli): E. coli (A) | Target(s) [1, 3]: S. epidermidis | Target(s) [1, 2]: E. coli; also recorded: P. aeruginosa; also recorded: C. albicans; also recorded: E. faecalis | Activities (microorganisms): G B

PF-638: peptide having multiple activities (chain 1 TFILPK; chain 2 TFILPK; Peptide with targeting and/or antimicrobial activity)
Organism, effect (E. faecalis): E. faecalis (H) | Organism, effect (MRSA): MRSA (M) | Organism, effect (S. epidermidis): S. epidermidis (R) | Organism, effect (S. pneumoniae): S. pneumoniae (I) | Target(s) (microorganisms bound by the targeting peptide) [1]: S. epidermidis and C. albicans and MRSA and C. jeikeium | Activities (microorganisms): G B

PF-443: peptide having multiple activities (chain 1 KLLYFFNYFENLQQVHLLVQL; chain 2 KLLYFFNYFENLQQVHLLVQL; Peptide with targeting and/or antimicrobial activity)
Organism, effect (MRSA): MRSA (C) | Organism, effect (S. pneumoniae): S. pneumoniae (C) | Organism, effect (E. coli): E. coli (R) | Activities (microorganisms): G B

PF-429: peptide having multiple activities (AATLICVGSGIMSSL; Peptide with targeting and/or antimicrobial activity)
Organism, effect (E. faecalis): E. faecalis (C) | Organism, effect (MRSA): MRSA (C) | Organism, effect (S. epidermidis): S. epidermidis (C) | Organism, effect (S. pneumoniae): S. pneumoniae (M) | Target(s) [1, 2]: S. epidermidis; also recorded: S. pneumoniae; also recorded: C. jeikeium | Activities (microorganisms): G B

PF-447: peptide having multiple activities (chain 1 IDKSRNKDQFSHIFGLYNICSG; chain 2 IDKSRNKDQFSHIFGLYNICSG; Peptide with targeting and/or antimicrobial activity)
Organism, effect (E. faecalis): E. faecalis (C) | Organism, effect (MRSA): MRSA (C) | Organism, effect (S. epidermidis): S. epidermidis (C) | Organism, effect (S. pneumoniae): S. pneumoniae (C) | Target(s) [1, 2]: S. epidermidis; also recorded: M. luteus; also recorded: E. coli; also recorded: S. pneumoniae | Activities (microorganisms): G B

PF-362: peptide having multiple activities (chain 1 NIERILKEKVWMIRCVE; chain 2 NIERILKEKVWMIRCVE; Peptide with targeting and/or antimicrobial activity)
Organism, effect (MRSA): MRSA (C) | Organism, effect (E. coli): E. coli (C) | Target(s) [1, 3]: S. epidermidis; also recorded: E. coli; also recorded: P. aeruginosa; also recorded: C. albicans; also recorded: E. faecalis; also recorded: C. jejuni | Activities (microorganisms): G B

PF-541 (RRNLNSPNIKTRKRALKIIKQHQRSK; Peptide with targeting and/or antimicrobial activity)
Organism, effect (S. pneumoniae): S. pneumoniae (H) | Organism, effect (E. coli): E. coli (H)

PF-344: peptide having multiple activities (DERLPEAKAIRNFNGSVMVLGR; Peptide with targeting and/or antimicrobial activity)
Organism, effect (E. coli): E. coli (A) | Target(s) [1, 3]: B. subtilis; also recorded: C. jejuni | Activities (microorganisms): G B
